Data set [1] has as its system cell line of fibroblasts called V79. The experiment in a line: Restoration of cellular ATP levels in V79 fibroblasts exposed to H2O2 stress (luminometry, ATPlite 1step). It is filed as cell-based, hamster. As to conditions: V79 cells. The method, then: Test 1: Evidence of the Ability of the Methionine-derived Peptidomimetics to Restore the Cellular ATP Levels on Cells Exposed to a Stress (H2O2):
The experimental study has been carried out on a cell line of fibroblasts called V79, and seeded in a 96 well plate at the rate of 5000 cells per well in 100 μl of culture medium (containing 10% foetal calf serum). This one is then replaced in each of the well by 100 μl of medium containing some peptidomimetics according to the invention, at the concentration of 7.5 mM or 10 mM. After 2 hours of incubation, the medium is removed from all wells. Then the cells are submitted to a stress with the addition of a medium containing 50 μl of hydrogen peroxide H2O2 (4 ppm). After 8 additional hours of incubation, the ATP average concentration is measured by luminometry in presence of luciferin (“ATPlite lstep” kit) and through a standard curve prepared from highly purified ATP.
The results, expressed as the average values obtained from three independent experiments, are presented in the hereafter table 1, in comparison with a control.
For orientation: ATP-based viability assays read luminescence as a measure of living cells.

Data set [2] in a line: Percutaneous absorption on human skin explants (Frantz-type cells, OECD guideline 428). It is filed as in vitro ADME. The following applies: 1% solution, 24 hours contact. The source says: Test 2: Percutaneous Absorption Study of the Methionine-derived Peptidomimetics on Human Skin Explants: The values of permeability coefficient (Kp) were obtained from a previously frozen abdominal […] human skin, in accordance with protocol described in the OECD guidelines n° 428 on cutaneous absorption studies. Experimentally, the skin explants were placed on Frantz-type cells in passive diffusion, piloted by the “MicroettePlus Hanson Research” system. The tested products are applied in a non-occlusive way. After that skin was laid on the cells, 500 μl of peptidomimetic according to the invention (1% solution) were placed in each of the cells and for a total contact time of 24 hours. At the end of these ones, the remaining product is sampled and the skin surface rinsed for extraction and for measure of the absorbed quantity, then for the determination of the permeability coefficient expressed under logarithmic type (Log Kp).

The test system of data set [3] is O2°− superoxide anion present in mitochondria of V79 cells. The experiment in a line: Mitochondrial oxidative stress in V79 cells under H2O2 stress (MitoSOX Red, flux cytometry). Format: cell-based, hamster. The following applies: for % of positive cells to MitoSOX: V79 cells. From the text:
(§1) Test 3: Evidence of the Protective Effect of the N-Acety-(DL)-Methionyl-4-(Methylthio)Propylamine Compound on the Mitochondrial Oxidative Stress and on the Mitochondrial Biogenesis
(§2) Principles: measures of the mitochondrial intracellular oxidative stress and detection of the mitochondrial biogenesis were achieved by flux cytometry with the following fluorophore markers: • the “MitoSOX™ Red” red fluorescent probe below-designed “MitoSOX” (detection to λ=580 nm; supplier: Invitrogen) allows to specifically detect the O2°^− superoxide anion present in mitochondria (due to its strong affinity for mitochondria), • the “MitoTracker® Green FM” green fluorescent probe below-designed “Mitogreen” (detection to λ=516 nm; supplier: Invitrogen) allows to quantify the mitochondrial mass (or related number of mitochondria per cell).
(§3) Experimentally, tests were achieved on a fibroblastic line of hamster “V79”, maintained by lining out in a “EMEM” complete culture medium (with 10% foetal calf serum) in humid atmosphere at 37° C. and 5% CO2. The V79 cells are seeded then incubated 24 hours in […] at the rate of 2.5·10^5 cells per well in 3 ml of the same culture medium, then exposed 1h30 to a stress with the addition of a medium containing hydrogen peroxide H2O2 (15 ppm).
(§4) After trypsination, the cells are incubated at 37° C. for 15 minutes in 1 ml of “EMEM” complete culture medium and containing the above-mentioned markers “MitoSOX” (at the final concentration of 5 μM) and “Mitogreen” (at the final concentration of 200 nM), for respective detection: • of the mitochondrial oxidative stress (expressed in % of positive cells) • of the mitochondrial mass per cell (expressed in % of MFI (“Mean Fluorescence Intensity”) in relation to the control).
(§5) The results, expressed as the average values obtained from four independent experiments, are presented in the hereafter tables 3a and 3b, in comparison with those obtained for the N-acetyl-cysteine chosen as a reference protective agent at the concentration of 5 mM.

The subject of data set [4] is mitochondrial mass of V79 cells. The experiment in a line: Mitochondrial mass / biogenesis in V79 cells under H2O2 stress (MitoTracker Green FM, flux cytometry). It is filed as cell-based, hamster. As to conditions: Mitogreen.
Text: as §1, §2, §3, §4, §5

Data set [5] can be described thus: Hydroxyl radical scavenging speed constant (deoxyribose / thiobarbituric acid method). As to conditions: pH 7.4, 37° C., one hour. The source says:
Test 5: Evidence of the Antioxidant Effect of the N-Acety-(DL)-Methionyl-4-(Methylthio)Propylamine and N-Propionyl-(DL)-Methionyl-4-(Methylthio)Propylamine on the Hydroxyl Radical
The method, described by Rehman A. and coll. (British J. Pharmacol. (1997), vol. 122, pp. 1702-1706), is used for the determination of the scavenging speed constant of the hydroxyl radical [Ks (OH°)], the peptidomimetic according to the invention being compared to two reference antioxidants, mannitol and ascorbic acid (vitamin C).
Experimentally, the tested substance is dissolved in a buffered medium of pH 7.4 to which is added a OH° generating system (ascorbate/iron/EDTA) in presence of deoxyribose. After one hour of incubation at 37° C., the reaction is stopped with the help of trichloroacetic acid. After colorimetric visualization with thiobarbituric acid, the absorbance is measured at 532 nm for different concentrations, then the relative Ks (OH°) is calculated for each of the substances.

Data set [6] can be described thus: Whitening test of pyrogallol red by peroxynitrite ions. As to conditions: inhibition of pyrogallol red (50 μM) oxidation by ONOO− (25 μM), pH 7.0, 5 minutes. From the text:
Test 6: Evidence of the Antioxidant Effect of the […])Propylamine Compound on Peroxynitrite Ions The method so-called “whitening test of the pyrogallol red (PR)”, described by Nath V. B. and coll.

For data set [7] the following is noted: reference antioxidants, literature footnotes; cited from earlier work.
For data set [8] the following is noted: literature value (Mitragotri 2003); cited from earlier work.

pIC50: −log10 of the molar value. Values joined by “and” are separate entries in the source; they are usually repeats but may differ in a detail not shown here. Equal values may be shown once. Read-outs that look alike come from different tables or passages of the source. Marks after values point to notes of the source that are not given here.

As a reminder, the pIC50 is the IC50 on a negative log10 scale, so that one unit is a factor of ten. On to `CSCCCNC(=O)C(CCSC)NC(C)=O` (stereo not drawn) [N-acetyl-(DL)-methionyl-4-(methylthio)propylamine], for which the ATP is 483 nM in data set [1] (compound 7.5 mM + H2O2 (4 ppm), 8 h) and 591 nM in data set [1] (compound 7.5 mM, no H2O2). In data set [2], this compound showed a Kp of 0.000109 cm/h. For the same compound, the “effect on intramitochondrial stress (MitoSOX and Mitogreen)” value in data set [3] (V79 cells + H2O2, in words, both tables 3a and 3b) is reported as “ability to reduce the effect of intramitochondrial stress”. Also, in data set [3] (7.5 mM + H2O2 (15 ppm, 1h30)), the “% of positive cells to MitoSOX” value came out at 40.3%. Moreover, the “MFI (% control)” value was 123.5 % control in data set [4] (7.5 mM + H2O2 (15 ppm, 1h30)) and 127.5 % control in data set [4] (10 mM + H2O2 (15 ppm, 1h30)). Also, the “Ks(OH°)” value in data set [5] is listed as 6.1 10^9 · M^−1 · s^−1. For the same compound, the pIC50 in data set [6] is 2.99.
Turning to `CC(=O)N[C@@H](CS)C(=O)O` [N-acetyl-cysteine, reference compound], the “% of positive cells to MitoSOX” value in data set [3] (5 ppm + H2O2 (15 ppm, 1h30)) is 15.2%. The “MFI (% control)” value in data set [4] (5 ppm + H2O2 (15 ppm, 1h30)) is on record as 74.4 % control.
With `CCC(=O)NC(CCSC)C(=O)NCCCSC` (stereo not drawn) [N-propionyl-(DL)-methionyl-4-(methylthio)propylamine], the ATP in data set [1] (compound 10 mM + H2O2 (4 ppm), 8 h) turned out to be 449 nM; in data set [1] (compound 10 mM, no H2O2), 528 nM. For the same compound, in data set [2], the Kp came out at 9.7e-05 cm/h. The “Ks(OH°)” value in data set [5] is recorded as 5.7 10^9 · M^−1 · s^−1.
`Cc1c(C)c2c(c(C)c1O)CCC(C)(C(=O)O)O2` (stereo not shown) [Trolox, carboxylic 2-(6-hydroxy-2,5,7,8-tetramethylchromane) acid, reference compound] had a negative logarithm of the IC50 (pIC50) in data set [6] of 4.08.
`O=C1O[C@H]([C@@H](O)CO)C(O)=C1O` [ascorbic acid]: in data set [7], the “Ks(OH°)” value was 10.1** 10^9 · M^−1 · s^−1.
Regarding `Cn1c(=O)c2c(ncn2C)n(C)c1=O` [caffeine], in data set [8], the Kp is recorded as 1 · 10^−4** cm · h^−1.
For `OC[C@@H](O)[C@@H](O)[C@H](O)[C@H](O)CO` [mannitol], the “Ks(OH°)” value in data set [7] is 1.6 10^9 · M^−1 · s^−1 and 1.9 10^9 · M^−1 · s^−1.

These data come from patent publication US8623338B2, “Methionine-derived peptidomimetics and their use in the protection of mitochondria of cutaneous cells” (Exsymol S.A.M., priority 2010, dated 2014).
